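Test compounds were applied to cells in 96-well plates for 48 hours at 5 doses. GI50 = concentration required for 50% inhibition of growth.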 Activity calls are given as the source filed them. No stated cut-off is given here; in the data, active = GI50 up to about 1.1 µM and inactive = higher.
What was measured:
Assay in all cases: growth of human tumour cells (NCI), 48 h
A498 = tested on: A498
HL-60 = tested on: HL-60
DLD-1 = tested on: DLD-1
SK-MEL-28 = tested on: SK-MEL-28
PC-3 = tested on: PC-3
LOX IMVI = tested on: LOX IMVI
ACHN = tested on: ACHN
T47D = tested on: T47D
K562 = tested on: K562
BT-549 = tested on: BT-549
SNB-19 = tested on: SNB-19
HT-29 = tested on: HT-29
DU-145 = tested on: DU-145
U-251 = tested on: U-251
OVCAR-3 = tested on: OVCAR-3
SNB-75 = tested on: SNB-75
SW-620 = tested on: SW-620
UACC-62 = tested on: UACC-62
NCI/ADR-RES = tested on: NCI/ADR-RES
786-0 = tested on: 786-0
HOP-62 = tested on: HOP-62
NCI-H460 = tested on: NCI-H460
KM12 = tested on: KM12
CCRF-CEM = tested on: CCRF-CEM
MCF7 = tested on: MCF7
RXF 393 = tested on: RXF 393
NCI-H23 = tested on: NCI-H23
OVCAR-8 = tested on: OVCAR-8
OVCAR-4 = tested on: OVCAR-4
CAKI-1 = tested on: CAKI-1
NCI-H226 = tested on: NCI-H226
OVCAR-5 = tested on: OVCAR-5
SK-MEL-2 = tested on: SK-MEL-2
DMS-273 = tested on: DMS-273
Malme-3M = tested on: Malme-3M
IGROV-1 = tested on: IGROV-1
SNB-78 = tested on: SNB-78
XF498 = tested on: XF498
Hs-578T = tested on: Hs-578T
SF-295 = tested on: SF-295
DMS-114 = tested on: DMS-114
MDA-MB-231 = tested on: MDA-MB-231
MDA-MB-435 = tested on: MDA-MB-435
EKVX = tested on: EKVX
M19-MEL = tested on: M19-MEL
M14 = tested on: M14
SF-268 = tested on: SF-268
HCC 2998 = tested on: HCC 2998
HCT-15 = tested on: HCT-15
UACC-257 = tested on: UACC-257
A549 = tested on: A549
KM-20L2 = tested on: KM-20L2
HCT-116 = tested on: HCT-116
SR = tested on: SR
SK-OV-3 = tested on: SK-OV-3
HOP-92 = tested on: HOP-92
MOLT-4 = tested on: MOLT-4
SF-539 = tested on: SF-539
SN12C = tested on: SN12C
UO-31 = tested on: UO-31
COLO 205 = tested on: COLO 205
RPMI-8226 = tested on: RPMI-8226
SK-MEL-5 = tested on: SK-MEL-5
NCI-H522 = tested on: NCI-H522
TK-10 = tested on: TK-10
MDA-N = tested on: MDA-N
LXFL 529 = tested on: LXFL 529
HOP-18 = tested on: HOP-18
RXF 631 = tested on: RXF 631

Compound: CC[C@@]1(O)C(=O)OCc2c1cc1n(c2=O)Cc2c-1nc1ccccc1c2Cl
- GI50 (A498): 0.0237 µM (active)
- GI50 (HL-60): < 0.01 µM (active)
- GI50 (DLD-1): 0.877 µM (active)
- GI50 (SK-MEL-28): 0.204 µM (active)
- GI50 (PC-3): < 21.4 nM (active)
- GI50 (LOX IMVI): < 0.01 µM (active)
- GI50 (ACHN): < 0.01 µM (active)
- GI50 (T47D): < 10 nM (active)
- GI50 (K562): 0.0329 µM (active)
- GI50 (BT-549): < 13.6 nM (active)
- GI50 (SNB-19): < 0.0107 µM (active)
- GI50 (HT-29): 0.0461 µM (active)
- GI50 (DU-145): < 10 nM (active)
- GI50 (U-251): < 0.01 µM (active)
- GI50 (OVCAR-3): 0.296 µM (active)
- GI50 (SNB-75): 0.0123 µM (active)
- GI50 (SW-620): 0.0348 µM (active)
- GI50 (UACC-62): < 0.01 µM (active)
- GI50 (NCI/ADR-RES): < 10 nM (active)
- GI50 (786-0): < 0.01 µM (active)
- GI50 (HOP-62): < 0.01 µM (active)
- GI50 (NCI-H460): < 0.01 µM (active)
- GI50 (KM12): 0.124 µM (active)
- GI50 (CCRF-CEM): < 0.01 µM (active)
- GI50 (MCF7): < 10 nM (active)
- GI50 (RXF 393): < 0.0132 µM (active)
- GI50 (NCI-H23): < 0.01 µM (active)
- GI50 (OVCAR-8): 0.0146 µM (active)
- GI50 (OVCAR-4): 0.56 µM (active)
- GI50 (CAKI-1): < 0.01 µM (active)
- GI50 (NCI-H226): < 0.01 µM (active)
- GI50 (OVCAR-5): 0.0811 µM (active)
- GI50 (SK-MEL-2): 396 nM (active)
- GI50 (DMS-273): < 10 nM (active)
- GI50 (Malme-3M): 0.239 µM (active)
- GI50 (IGROV-1): 0.211 µM (active)
- GI50 (SNB-78): 2.65 µM (inactive)
- GI50 (XF498): 76.7 nM (active)
- GI50 (Hs-578T): 4.52 µM (inactive)
- GI50 (SF-295): < 0.01 µM (active)
- GI50 (DMS-114): < 0.0104 µM (active)
- GI50 (MDA-MB-231): 8.32 µM (inactive)
- GI50 (MDA-MB-435): 98.4 nM (active)
- GI50 (EKVX): 659 nM (active)
- GI50 (M19-MEL): 0.08 µM (active)
- GI50 (M14): < 0.0133 µM (active)
- GI50 (SF-268): < 0.01 µM (active)
- GI50 (HCC 2998): 521 nM (active)
- GI50 (HCT-15): 267 nM
- GI50 (UACC-257): 0.112 µM (active)
- GI50 (A549): < 0.01 µM (active)
- GI50 (KM-20L2): 0.216 µM (active)
- GI50 (HCT-116): 0.0168 µM (active)
- GI50 (SR): < 0.01 µM (active)
- GI50 (SK-OV-3): 0.0217 µM (active)
- GI50 (HOP-92): 0.0724 µM (active)
- GI50 (MOLT-4): < 0.01 µM (active)
- GI50 (SF-539): < 0.01 µM (active)
- GI50 (SN12C): < 0.01 µM (active)
- GI50 (UO-31): < 0.01 µM (active)
- GI50 (COLO 205): 0.658 µM (active)
- GI50 (RPMI-8226): < 0.0151 µM (active)
- GI50 (SK-MEL-5): < 0.0141 µM (active)
- GI50 (NCI-H522): < 0.0127 µM (active)
- GI50 (TK-10): 6.21 µM (inactive)
- GI50 (MDA-N): 69 nM (active)
- GI50 (LXFL 529): 0.935 µM (active)
- GI50 (HOP-18): 0.0598 µM (active)

Compound: O=C(Nc1ccc(Cl)cc1Cl)c1c/c(=N\O)c2ccc(O)cc2o1
- GI50 (A498): > 100 µM (inactive)
- GI50 (HL-60): > 100 µM (inactive)
- GI50 (DLD-1): > 100 µM (inactive)
- GI50 (SK-MEL-28): > 100 µM (inactive)
- GI50 (LOX IMVI): > 100 µM (inactive)
- GI50 (ACHN): > 100 µM (inactive)
- GI50 (K562): > 100 µM (inactive)
- GI50 (SNB-19): > 100 µM (inactive)
- GI50 (HT-29): > 100 µM (inactive)
- GI50 (RXF 631): > 100 µM (inactive)
- GI50 (U-251): > 100 µM (inactive)
- GI50 (OVCAR-3): > 100 µM (inactive)
- GI50 (SNB-75): 30.9 µM (inactive)
- GI50 (SW-620): > 100 µM (inactive)
- GI50 (UACC-62): > 100 µM (inactive)
- GI50 (786-0): > 100 µM (inactive)
- GI50 (HOP-62): > 100 µM (inactive)
- GI50 (NCI-H460): > 100 µM (inactive)
- GI50 (KM12): > 100 µM (inactive)
- GI50 (CCRF-CEM): > 100 µM (inactive)
- GI50 (RXF 393): > 100 µM (inactive)
- GI50 (NCI-H23): > 100 µM (inactive)
- GI50 (OVCAR-8): > 100 µM (inactive)
- GI50 (OVCAR-4): > 100 µM (inactive)
- GI50 (CAKI-1): > 100 µM (inactive)
- GI50 (NCI-H226): > 100 µM (inactive)
- GI50 (OVCAR-5): > 100 µM (inactive)
- GI50 (Malme-3M): > 100 µM (inactive)
- GI50 (IGROV-1): > 100 µM (inactive)
- GI50 (SNB-78): > 100 µM (inactive)
- GI50 (SF-295): > 100 µM (inactive)
- GI50 (DMS-114): > 100 µM (inactive)
- GI50 (M19-MEL): > 100 µM (inactive)
- GI50 (M14): > 100 µM (inactive)
- GI50 (SF-268): > 100 µM (inactive)
- GI50 (HCT-15): > 100000 nM
- GI50 (UACC-257): > 100 µM (inactive)
- GI50 (A549): > 100 µM (inactive)
- GI50 (KM-20L2): > 100 µM (inactive)
- GI50 (HCT-116): > 100 µM (inactive)
- GI50 (SR): > 100 µM (inactive)
- GI50 (SK-OV-3): > 100 µM (inactive)
- GI50 (HOP-92): > 100 µM (inactive)
- GI50 (MOLT-4): > 100 µM (inactive)
- GI50 (SF-539): > 100 µM (inactive)
- GI50 (SN12C): > 100 µM (inactive)
- GI50 (UO-31): > 100 µM (inactive)
- GI50 (COLO 205): > 100 µM (inactive)
- GI50 (RPMI-8226): > 100 µM (inactive)
- GI50 (SK-MEL-5): > 100 µM (inactive)
- GI50 (NCI-H522): > 100 µM (inactive)
- GI50 (TK-10): > 100 µM (inactive)
- GI50 (LXFL 529): > 100 µM (inactive)
- GI50 (HOP-18): > 100 µM (inactive)
